Test results reported in PMC8750417, “Intracellular Amplifiers of Reactive Oxygen Species Affecting Mitochondria as Radiosensitizers” (Cancers, 2021).

Key:
A2780 cells = assay: Mechanism of death of A2780 cells (Annexin A5/PI flow cytometry); assay type: cell-based, human; details: A2780, 48 h
Protocol: Figure S54. Effect of prodrugs 1 and 2c (48 h incubation) on the intracellular amount of GSH in Jurkat cells. *: p< 0.05; ns: non-significant (Student’s t test). Detailed experimental description is provided above.
Study of the mechanism of death of A2780 cells induced by prodrug 2c and controls A2780 cells were seeded into 96 well culture plates at the same cell concentration and in the same medium as applied for the above described MTT assay (48 h incubation with the prodrugs). The next day, stock solutions of prodrugs of different concentrations (1 µ L, solvent DMSO, final concentrations in wells were 5, 10 and 30 µ M) or carrier only (DMSO, 1 µ L, final concentration 1 %, v/v) were added to the wells and incubated in the chamber filled with CO 2 (5%). After 48 h supernatants were transferred into 1.5 mL Eppendorf tubes and 100 µ L of DPBS was added to transfer supernatant residue into tube. Trypsin (0.25%, 50 µ L) was then added to well to detach the cells. All supernatants in Eppendorf tubes were combined back into wells. After gently pipetting up and down, 50 µ L of cell solutions was transferred into a new Eppendorf tube and incubated with 200 µ L of staining solution, consisting of Annexin A5-Fitc (5 µ L) and propidium iodide (PI, 330 ng) per 1 mL buffer (conc. 1X). […]

[1] = Hydrolysis of prodrugs in aqueous neutral solution (HPLC-UV-MS); assay type: physicochemical; details: 1 to 1_BA
Protocol: To identify the active form of prodrugs 2a–2d in aqueous neutral buffers, we investigated their stability in the water rich solvent mixture containing triethylammonium acetate buffer (pH 7.0, 1.5 mM) and CH3CN (7/3, v/v). We observed that even freshly prepared solutions of analytically pure samples of 2a–2d (peaks eluted at 10.2–10.7 min) contain hydrolyzed species corresponding to boronic acid derivatives 2a_BA–2d_BA (peaks eluted at 7.1–7.5 min, 7–14% of the area of all peaks) (Figure S43, SI). After 2 h incubation of these samples, the peaks of 2a_BA–2d_BA become major ones (79–87% of the area of all peaks, Figure S43, SI).
Figure S42. High resolution ESI-TOF mass spectrum of HCl salt of drug 4 (4*HCl): upper plot – experimental spectrum; bottom plot – theoretical spectrum.
Determination of crystal structure of prodrug 2a […]
Stock solutions of prodrugs (2a-2d, 3 mM) in DMSO were first prepared. […] After the probes (20 µL) of these solutions were incubated for 0 or 2 h at 37 °C, they were injected to HPLC coupled to UV-visible detector (detection of absorbance at 254 nm) and electrospray mass spectrometric detector (detection of positively charged ions in the m/z range of 300 - 1200) and the analytes were separate d by using gradients of CH3CN (containing formic acid, 0.1 %, v/v) in water (containing ammonium formate, 10 mM and formic acid, 0.1 %, v/v) from 15% to 95%. […]

Row | SMILES | mechanism of cell death (A2780 cells) | time of formation of the hydrolyzed form in aqueous neutral solution [1] [h]
1 | CC1(C)OB(c2ccc(COC(=O)N(Cc3cn(Cc4ccc(Cn5cc(Cc6ccccc6)nn5)cc4)nn3)[c-]3cccc3)cc2)OC1(C)C.[Fe+2].c1cc[cH-]c1 [2c] | mainly via necrosis | 
2 | CCOC(=O)CCCCCn1cc(CN(C(=O)OCc2ccc(B3OC(C)(C)C(C)(C)O3)cc2)[c-]2cccc2)nn1.[Fe+2].c1cc[cH-]c1 [compound 1] |  | < 2
